Results: US20140214336A1, “SYSTEMS AND METHODS FOR NETWORK-BASED BIOLOGICAL ACTIVITY ASSESSMENT” (PHILIP MORRIS PRODUCTS S.A., priority 2011, published 2014)

Tests used:
[1] = test system: Normal human bronchial epithelial (NHBE) cells; test: Cell cycle arrest and S-phase re-entry in NHBE cell culture (fluorescent S-phase labeling / FACS); assay type: cell-based
Protocol: (§1) The systems and methods described herein have been tested using a well-understood cell culture experiment. […] The treated cells were then allowed to re-enter the cell cycle by removal of the CDKI from the media and washing. Re-entry of the cell cycle was experimentally confirmed by labeling the cells fluorescently in S-phase at 2, 4, 6 and 8 hours after the CDKI was removed and the cells were washed. The gene transcription profiles of cells that were sampled 2, 4, 6, and 8 hours after the removal of the CDKI, were obtained. Profiles of cells that were continuously exposed to CDKI in media were also obtained. To identify biological processes and mechanisms that were differentially activated when CDKI was removed, network perturbation amplitude scores were calculated using gene transcription profiles of the washed cells obtained at various time point. For the computation of a NPA score for the perturbation associated with the removal of CDKI, a cell cycle subnetwork that comprises 127 nodes and 240 edges, was used. It is a subnetwork of the cell proliferation network model published in […] et al. (2011, “A computable cellular stress network model for non-diseased pulmonary and cardiovascular tissue” BMC Syst Biol. Oct 19; 5:168, which is incorporated herein by reference in its entirety). […]

[2] = test system: cell cycle subnetwork in NHBE cells; test: Network perturbation amplitude (NPA) score on the cell cycle subnetwork, from gene transcription profiles of NHBE cells; assay type: cell-based, human; details: from 2-hour to 8-hour time point after removal of CDKI, versus cells continuously exposed to CDKI; subnetwork of 127 nodes and 240 edges
Protocol: as §1

## CC(=O)c1c(C)c2cnc(Nc3ccc(N4CCNCC4)cn3)nc2n(C2CCCC2)c1=O [PD-0332991]
[1]; 2, 4, 6 and 8 hours after the CDKI was removed and the cells were washed
  number of cells in S-phase (FACS analysis, FIG. 17): increase
[1]; NHBE cells exposed to the CDKI in media
  effect on cell cycle: arrests the cells in G1
[2]
  NPA scores (FIG. 18): increase
